These results are taken from patent US5256682A, “Isoxazolylimidazole derivatives, process for their production and their use in pharmaceutical agents” (Schering Aktiengesellschaft, priority 1991, dated 1993).

The data set is described as follows: Metabolic stability: % of test substance remaining after incubation with mouse liver homogenate. Particulars: amount not catabolized, in % of the zero value; 120 minutes, 37° C., pH 7.3; NMRI mouse liver homogenate; HPLC; read-out: % Radical after incubation with mouse liver homogenate. The format is in vitro ADME. How it is done:
The stability of the compounds was measured as follows:
The test substance (1 μg/50 μl of ethanol) was adjusted with 750 μl of Krebs-Henseleit-Ringer phosphate buffer to pH 7.3 and brought together with 750 μl of a liver homogenate at room temperature and mixed. 250 μl of this batch was removed for zero-point determination and the batch was incubated at 37° C. with continuous movement in a water bath. Aliquot parts of 250 μl are removed after 120 minutes, extracted with 3 ml of diethyl ether after 5 minutes of shaking, then centrifuged for 10 minutes under cooling, frozen, the ether is decanted and dried in a dry nitrogen stream. The residue is dissolved in each case in 200 μl of ethanol and the solution is analyzed with HPLC. The liver used was obtained from NMRI mice and homogenized after removal immediate in 4 parts of a 0.25 molar sucrose solution in a Potter-Elvehjem mixer. The homogenate was then filtered through linen and diluted with the same sucrose solution to 1:10 (weight: volume). Aliquot parts of the solution were stored at -18° C.
Take `CCc1nc(-c2ncn(-c3cccc(Oc4ccccc4)c3)c2C)no1` [A, 4-(5-ethyl-1,2,4-oxadiazol-3-yl)-5-methyl-1-(3-phenoxy-phenyl)-imidazole, reference compound]: the remaining at 2 h was 31%.

`CCc1cc(-c2ncn(-c3cccc(Oc4ccccc4)c3)c2C)on1` [B, 4-(3-Ethyl-isoxazol-5-yl)-5-methyl-1-(3-phenoxyphenyl)imidazole]: the remaining at 2 h was 95%.

With `CCc1cc(-c2ncn(-c3cccc(Oc4ccccc4)c3)c2C)no1` [C, 4-(5-Ethyl-isoxazol-3-yl)-5-methyl-1-(3-phenoxyphenyl)imidazole], the remaining at 2 h worked out at 71%.

Consider `COCc1cc(-c2ncn(-c3cccc(Oc4ccccc4)c3)c2C)on1` [D, 4-(3-Methoxymethyl-isoxazol-5-yl)-5-methyl-1-(3-phenoxyphenyl)-imidazole], for which the remaining at 2 h was 100%.
